Where “and” joins values, the source holds several entries; their conditions need not be identical. Identical values can stand only once. Inconclusive results and toxic doses are left out. No stated cut-off is given here; in the data, active means T/C of 150% or more; inactive means T/C below 125%.
Test system: L1210 leukemia ip in BDF1 mice, survival T/C
Assay: NCI In Vivo Anticancer Drug Screen. Data for tumor model L1210 Leukemia (intraperitoneal) in B6D2F1 (BDF1) mice
Settings: endpoint: mean survival time, higher = longer survival
Procedure, shortened: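 Transplanted-tumor mice were given test agent; controls received vehicle only. Survival readings from the two groups were divided (treated over control).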

[1] = dose: 50.0 mg/kg/injection, schedule: Q01DX009 (ip), vehicle: saline
[2] = dose: 50.0 mg/kg/injection, schedule: Q04DX003 (ip), vehicle: saline
[3] = dose: 100.0 mg/kg/injection, schedule: Q01DX009 (ip), vehicle: saline
[4] = dose: 100.0 mg/kg/injection, schedule: Q04DX002 (ip), vehicle: saline
[5] = dose: 200.0 mg/kg/injection, schedule: Q04DX002 (ip), vehicle: saline
[6] = dose: 200.0 mg/kg/injection, schedule: Q04DX003 (ip), vehicle: saline
[7] = dose: 50.0 mg/kg/injection, schedule: Q01DX009 (ip), vehicle: Klucel (hydroxypropylcellulose) (HPC)
[8] = dose: 100.0 mg/kg/injection, schedule: Q01DX009 (ip), vehicle: Klucel (hydroxypropylcellulose) (HPC)
[9] = dose: 200.0 mg/kg/injection, schedule: Q01DX009 (ip), vehicle: Klucel (hydroxypropylcellulose) (HPC)
[10] = dose: 200.0 mg/kg/injection, schedule: Q01DX009 (ip), vehicle: saline
[11] = dose: 1.56 mg/kg/injection, schedule: Q01DX009 (ip), vehicle: saline
[12] = dose: 3.12 mg/kg/injection, schedule: Q01DX009 (ip), vehicle: saline
[13] = dose: 6.25 mg/kg/injection, schedule: Q01DX009 (ip), vehicle: saline
[14] = dose: 12.5 mg/kg/injection, schedule: Q01DX009 (ip), vehicle: saline
[15] = dose: 25.0 mg/kg/injection, schedule: Q04DX003 (ip), vehicle: Klucel (hydroxypropylcellulose) (HPC)
[16] = dose: 50.0 mg/kg/injection, schedule: Q04DX003 (ip), vehicle: Klucel (hydroxypropylcellulose) (HPC)
[17] = dose: 100.0 mg/kg/injection, schedule: Q01DX001 (ip), vehicle: carboxymethylcellulose (CMC)
[18] = dose: 200.0 mg/kg/injection, schedule: Q01DX001 (ip), vehicle: carboxymethylcellulose (CMC)
[19] = dose: 400.0 mg/kg/injection, schedule: Q01DX001 (ip), vehicle: carboxymethylcellulose (CMC)
[20] = dose: 100.0 mg/kg/injection, schedule: Q01DX009 (ip), vehicle: saline with Tween-80
[21] = dose: 200.0 mg/kg/injection, schedule: Q01DX009 (ip), vehicle: saline with Tween-80
[22] = dose: 400.0 mg/kg/injection, schedule: Q01DX009 (ip), vehicle: saline with Tween-80
[23] = dose: 100.0 mg/kg/injection, schedule: Q04DX002 (ip), vehicle: Klucel (hydroxypropylcellulose) (HPC)
[24] = dose: 200.0 mg/kg/injection, schedule: Q04DX002 (ip), vehicle: Klucel (hydroxypropylcellulose) (HPC)

Measured: T/C

CCC(Br)C(=O)O (centres undefined)
inactive: [1] 96 % of control and 97 % of control | [2] 95 % of control | dose: 100.0 mg/kg/injection, schedule: Q01DX001 (ip), vehicle: saline 92 % of control | [3] 89 % of control and 91 % of control | [4] 101 % of control | dose: 100.0 mg/kg/injection, schedule: Q04DX003 (ip), vehicle: saline 100 % of control | dose: 200.0 mg/kg/injection, schedule: Q01DX001 (ip), vehicle: saline 96 % of control | [5] 105 % of control | [6] 90 % of control

N#CCCCc1ccccc1
inactive: [7] 96 % of control | [8] 104 % of control | [9] 112 % of control

CCCCCCCCCC(=O)N(CCCC)CCCC
inactive: [7] 102 % of control | [8] 105 % of control | [4] 95 % of control | [9] 109 % of control | [5] 101 % of control | dose: 400.0 mg/kg/injection, schedule: Q04DX002 (ip), vehicle: saline 88 % of control

Cc1cccc(C)c1-c1c2ccccc2cc2ccccc12
inactive: [3] 95 % of control | dose: 100.0 mg/kg/injection, schedule: Q04DX003 (ip), vehicle: saline with Tween-80 96 % of control | [10] 93 % of control | dose: 200.0 mg/kg/injection, schedule: Q04DX003 (ip), vehicle: saline with Tween-80 96 % of control | dose: 400.0 mg/kg/injection, schedule: Q01DX009 (ip), vehicle: saline 87 % of control | dose: 400.0 mg/kg/injection, schedule: Q04DX003 (ip), vehicle: saline with Tween-80 93 % of control

O=S(=O)(O)CCCBr
inactive: dose: 100.0 mg/kg/injection, schedule: Q04DX003 (ip), vehicle: acetone 96 % of control | dose: 200.0 mg/kg/injection, schedule: Q04DX003 (ip), vehicle: acetone 95 % of control | dose: 400.0 mg/kg/injection, schedule: Q04DX003 (ip), vehicle: acetone 87 % of control

COC(=O)/C=C/Sc1ccccc1C(=O)OC
inactive: dose: 50.0 mg/kg/injection, schedule: Q04DX003 (ip), vehicle: other 104 % of control | dose: 100.0 mg/kg/injection, schedule: Q04DX003 (ip), vehicle: other 87 % of control | dose: 200.0 mg/kg/injection, schedule: Q04DX003 (ip), vehicle: other 95 % of control

O=S1(=O)CC(Cl)C(Cl)C1 (centres undefined)
inactive: [11] 90 % of control | [12] 91 % of control | [13] 91 % of control | dose: 12.5 mg/kg/injection, schedule: Q01DX001 (ip), vehicle: other 94 % of control | dose: 12.5 mg/kg/injection, schedule: Q01DX001 (ip), vehicle: saline with Tween-80 98 % of control | dose: 12.5 mg/kg/injection, schedule: Q01DX009 (ip), vehicle: other 90 % of control | [14] 98 % of control | dose: 12.5 mg/kg/injection, schedule: Q04DX003 (ip), vehicle: Klucel (hydroxypropylcellulose) (HPC) 106 % of control | dose: 25.0 mg/kg/injection, schedule: Q01DX001 (ip), vehicle: other 95 % of control | dose: 25.0 mg/kg/injection, schedule: Q01DX001 (ip), vehicle: saline with Tween-80 100 % of control | [15] 108 % of control | dose: 25.0 mg/kg/injection, schedule: Q04DX003 (ip), vehicle: saline with Tween-80 101 % of control | dose: 50.0 mg/kg/injection, schedule: Q01DX001 (ip), vehicle: other 95 % of control | [16] 92 % of control | dose: 50.0 mg/kg/injection, schedule: Q04DX003 (ip), vehicle: saline with Tween-80 90 % of control

CC(=O)Nc1ccc2c(c1)-c1ccc(F)cc1C2
inactive: [17] 94 % of control | [18] 96 % of control | [19] 102 % of control

OCC1OC(n2cc(Cl)c3cncnc32)C(O)C1O (centres undefined)
inactive: dose: 50.0 mg/kg/injection, schedule: Q01DX005 (ip), vehicle: saline 101 % of control

O=C(CCCN1CCC2(CC1)C(=O)NCN2c1ccccc1)c1ccc(F)cc1
inactive: dose: 0.78 mg/kg/injection, schedule: Q01DX009 (ip), vehicle: saline 96 % of control | dose: 0.78 mg/kg/injection, schedule: Q04DX003 (ip), vehicle: saline 98 % of control | [11] 105 % of control | dose: 1.56 mg/kg/injection, schedule: Q04DX003 (ip), vehicle: saline 96 % of control | [12] 107 % of control | dose: 3.12 mg/kg/injection, schedule: Q04DX003 (ip), vehicle: saline 105 % of control | [13] 97 % of control | dose: 6.25 mg/kg/injection, schedule: Q04DX003 (ip), vehicle: saline 106 % of control | [14] 92 % of control | dose: 12.5 mg/kg/injection, schedule: Q04DX003 (ip), vehicle: saline 124 % of control | [2] 120 % of control | [6] 93 % of control

OC(Cc1cccc(/C=N/N2CCOCC2)n1)(C(F)(F)F)C(F)(F)F
inactive: [20] 91 % of control | [21] 98 % of control | [22] 89 % of control

CC1CN(Cc2ccccc2)C(=O)N(c2ccccc2)C1=O (centres undefined)
inactive: dose: 100.0 mg/kg/injection, schedule: Q01DX Z (ip), vehicle: methylcellulose (MC) 92 % of control

O=C1c2ccccc2C(=O)c2c(O)ccc(O)c21
inactive: [1] 94 % of control | [20] 106 % of control | [3] 102 % of control | [21] 101 % of control | [10] 102 % of control | [22] 101 % of control

O=C(Nc1ccc([N+](=O)[O-])cc1Cl)c1cc(Cl)ccc1O
inactive: [7] 101 % of control | [8] 104 % of control | [23] 91 % of control | [9] 101 % of control | [24] 94 % of control

C=CC[Si](C)(C)N1CC1
inactive: dose: 12.5 mg/kg/injection, schedule: Q01DX001 (ip), vehicle: carboxymethylcellulose (CMC) 108 % of control

COc1ccc(CCNC(=O)Cc2cc(OCc3ccccc3)c(OC)cc2[N+](=O)[O-])cc1OC
inactive: dose: 100.0 mg/kg/injection, schedule: Q04DX003 (ip), vehicle: water 90 % of control | dose: 200.0 mg/kg/injection, schedule: Q01DX001 (ip), vehicle: water 91 % of control | dose: 200.0 mg/kg/injection, schedule: Q04DX003 (ip), vehicle: water 91 % of control | dose: 400.0 mg/kg/injection, schedule: Q01DX001 (ip), vehicle: water 96 % of control | dose: 400.0 mg/kg/injection, schedule: Q04DX003 (ip), vehicle: water 91 % of control

O=C1C(=O)c2cc(Cl)ccc2-c2ccc(Cl)cc21
inactive: dose: 50.0 mg/kg/injection, schedule: Q01DX001 (ip), vehicle: carboxymethylcellulose (CMC) 97 % of control | [17] 106 % of control | [18] 103 % of control | [19] 97 % of control

CNC(=S)N/N=C(\C=N\NC(=S)NC)c1ccc(-c2ccccc2)cc1
inactive: [23] 89 % of control | [24] 92 % of control | dose: 400.0 mg/kg/injection, schedule: Q04DX002 (ip), vehicle: Klucel (hydroxypropylcellulose) (HPC) 92 % of control

COc1ccc(CCN2CC(=O)NC(=O)C2)cc1OC
inactive: dose: 25.0 mg/kg/injection, schedule: Q01DX009 (ip), vehicle: Klucel (hydroxypropylcellulose) (HPC) 95 % of control | [15] 104 % of control | [7] 96 % of control | [16] 104 % of control | [8] 101 % of control | dose: 100.0 mg/kg/injection, schedule: Q04DX003 (ip), vehicle: Klucel (hydroxypropylcellulose) (HPC) 101 % of control | [9] 101 % of control | dose: 200.0 mg/kg/injection, schedule: Q04DX003 (ip), vehicle: Klucel (hydroxypropylcellulose) (HPC) 101 % of control | dose: 400.0 mg/kg/injection, schedule: Q01DX009 (ip), vehicle: Klucel (hydroxypropylcellulose) (HPC) 101 % of control | dose: 400.0 mg/kg/injection, schedule: Q04DX003 (ip), vehicle: Klucel (hydroxypropylcellulose) (HPC) 109 % of control

From PubChem BioAssay AID248 (DTP/NCI, 2004)
